# Assay results published in US7059206B1 (priority 1999, dated 2006).
# Read-outs that look alike come from different tables or passages of the source.
# Legend:
# [1] = Cadmium uptake by passive sampler, effect of pH and of permselective membrane
# From the text: Further evidence for the permselective function of the membrane during diffusion is illustrated by studying the effect of pH on metal uptake by the passive sampler, in this case Cd. […] Cadmium was initially added to a carefully-controlled water system in the laboratory into which the sampler was placed. Samples of water were taken over a period of 10 days.
# Further evidence of the interaction of metal with the permselective membrane is that uptake to a naked disk is much more rapid. The uptake rate constant (k) for Cd is 1.6×10^9 min^−1 for the naked disk and 0.21×10^9 min^−1 for the permselective membrane.
# [2] = cited from earlier work
# [3] = Uptake by prototype passive sampler at constant exposure concentration over time; details: polyethylene device
# Experimental: In each experiment, the prototype device was tested fitted with both the polyethylene and the polysulphone membrane.
# Accumulation of organic analytes by a passive sampling system fitted with a C18 Empore™ disk as receiving phase and either a […] pore size polysulphone membrane or a polyethylene membrane as a diffusion-limiting membrane material. Accumulation was measured following exposure of the system to an aqueous solution of analytes at constant concentration, stirring speed (140 rpm) and temperature (11° C.). Linear regressions of the accumulation factor, AF, (ml/device) on time were plotted and are given with the […] (R^2) in table 7. AF=mass of analytes in the tested compartment (ng/device)/mean concentration of the analyte in the aqueous phase during deployment (ng/ml).
# The pattern of uptake in each case is linear with time over deployment periods ranging from several hours to 9 days. R^2 values in each case are above 0.9. Linear regressions plotted through the data points show the lag time between exposure of the device to an aqueous solution of each analyte and its uptake into the receiving phase of the passive sampling system. In effect this is a measurement of the response time of a particular prototype passive sampling system to a particular compound.
SMILES,Solubility in water ([2]; at 25° C.) [mgl^−1],lag phase between exposure and uptake into the C18 receiving phase [3],Solubility in water ([2]; temperature not given) [mgl^−1],other results
[Cd] [Cadmium],,,,uptake rate constant (k) ([1]; naked disk): 1.6e+09 min⁻¹; uptake rate constant (k) ([1]; permselective membrane (Nafion-coated cellulose acetate)): 2.1e+08 min⁻¹
CN(C)C(=O)Nc1ccc(Cl)c(Cl)c1 [Diuron],42,,,
c1ccc2c(c1)ccc1ccccc12 [Phenanthrene],,only a small lag phase,,
Clc1cc(Cl)c(-c2cc(Cl)c(Cl)cc2Cl)cc1Cl [PCB 153],,a more significant lag phase,0.00105,
ClC1=C(Cl)[C@]2(Cl)[C@@H]3[C@@H]4C[C@@H]([C@H]5O[C@@H]45)[C@@H]3[C@@]1(Cl)C2(Cl)Cl [Dieldrin],0.186,a more significant lag phase,,
Clc1ccc(Cl)c(-c2cc(Cl)ccc2Cl)c1 [PCB 52],,only a small lag phase,0.03,
